Test: Measurement of logP values by HPLC on reversed phase columns (EEC directive 79/831 Annex V.A8)
Type: physicochemical
Conditions: method [a]

SMILES	LogP^[a]
Cc1nn(C)c(C)c1C(=O)Nc1cccc2c1CCC(C)C2C (mixture of isomers) [Example 11]	3.00^[a]
CC1CCc2c(NC(=O)c3cn(C)nc3C(F)F)cccc2C1C (mixture of isomers) [Example 12]	3.37^[a]
Cc1nn(C)c(F)c1C(=O)Nc1cccc2c1CCC(C)C2C (mixture of isomers) [Example 13]	3.41^[a]
CC1CCc2cccc(NC(=O)c3cn(C)nc3C(F)F)c2C1C (mixture of isomers) [Example 15]	3.21^[a]
Cc1nc(C(F)F)c(C(=O)Nc2cccc3c2CCC(C)C3C)s1 (mixture of isomers) [Example 35]	3.78^[a]
CCc1nc(C)sc1C(=O)Nc1cccc2c1CCC(C)C2C (mixture of isomers) [Example 36]	3.87^[a]
CC1CCc2c(NC(=O)c3cn(C)nc3C(F)F)cccc2C1(C)C (racemic) [Example 1]	3.60^[a]
CC1CCc2cccc(NC(=O)c3cn(C)nc3C(F)F)c2C1(C)O (racemic) [Example 14]	3.96^[a]
CC1CCC(C)(C)c2cccc(NC(=O)c3cn(C)nc3C(F)F)c21 (racemic) [Example 17]	3.44^[a]
Cc1nc(C(F)F)c(C(=O)Nc2cccc3c2CCC(C)(C)C3C)s1 (racemic) [Example 18]	4.09^[a]
CCc1nc(C)sc1C(=O)Nc1cccc2c1CCC(C)(C)C2C (racemic) [Example 19]	4.19^[a]
Cc1nn(C)c(C)c1C(=O)Nc1cccc2c1CCC(C)(C)C2C (racemic) [Example 20]	3.25^[a]
Cc1nn(C)c(F)c1C(=O)Nc1cccc2c1CCC(C)(C)C2C (racemic) [Example 21]	3.70^[a]
CC1c2cccc(NC(=O)c3cn(C)nc3C(F)F)c2CCC1(C)C (racemic) [Example 22]	3.68^[a]
Cn1cc(C(=O)Nc2cccc3c2CCCC3(C)C)c(C(F)F)n1 [Example 4]	3.26^[a]
Cn1cc(C(=O)Nc2cccc3c2CC(C)(C)CC3)c(C(F)F)n1 [Example 5]	3.25^[a]
C=C1c2cccc(NC(=O)c3c(C)nn(C)c3C)c2CCC1(C)C [Example 6]	3.05^[a]
C=C1c2cccc(NC(=O)c3sc(C)nc3C(F)F)c2CCC1(C)C [Example 7]	3.87^[a]
C=C1c2cccc(NC(=O)c3sc(C)nc3CC)c2CCC1(C)C [Example 8]	3.99^[a]
C=C1c2cccc(NC(=O)c3c(C)nn(C)c3F)c2CCC1(C)C [Example 9]	3.48^[a]
C=C1c2cccc(NC(=O)c3cn(C)nc3C(F)F)c2CCC1(C)C [Example 10]	3.48^[a]
Cc1nn(C)c(C)c1C(=O)Nc1cccc2c1CC(C)(C)CC2 [Example 23]	2.90^[a]
CCc1nc(C)sc1C(=O)Nc1cccc2c1CC(C)(C)CC2 [Example 24]	3.79^[a]
Cc1nc(C(F)F)c(C(=O)Nc2cccc3c2CC(C)(C)CC3)s1 [Example 25]	3.72^[a]
Cc1nn(C)c(F)c1C(=O)Nc1cccc2c1CC(C)(C)CC2 [Example 26]	3.31^[a]
Cn1cc(C(=O)Nc2cccc3c2CCCC3)c(C(F)F)n1 [Example 27]	2.68^[a]
Cn1cc(C(=O)Nc2cccc3c2CCCC3)c(C(F)(F)F)n1 [Example 28]	2.92^[a]
Cn1cc(C(=O)Nc2cccc3c2CCC(C)(C)C3=O)c(C(F)F)n1 [Example 29]	2.40^[a]

Same assay, conditions: pH 2.7

SMILES	chromatographic logP
Cc1nn(C)c(F)c1C(=O)Nc1cccc2c1CCCC2(C)C [Example 2, N-(5,5-dimethyl-5,6,7,8-tetrahydronaphthalen-1-yl)-5-fluoro-1,3-dimethyl-1H-pyrazole-4-carboxamide]	3.23
C=C1c2c(cccc2NC(=O)c2cn(C)nc2C(F)F)CCC1(C)C [Example 16, 3-(difluoromethyl)-N-(7,7-dimethyl-8-methylene-5,6,7,8-tetrahydronaphthalen-1-yl)-1-methyl-1H-pyrazole-4-carboxamide]	2.31

— US9630943B2, “Tetrahydronaphthyl(thio) carboxamides” (BAYER CROPSCIENCE AG, priority 2012, dated 2017)
